From patent US11407721B2, “CIS-morpholinone and other compounds as MDM2 inhibitors for the treatment of cancer” (AMGEN INC., priority 2013, dated 2022)
Read-outs that look alike come from different tables or passages of the source.

Legend:
[1] = target: interaction between HDM2 and p53 (GST-hMDM2 / biotinylated-p53) (Homo sapiens (Human), UniProt Q00987); experiment: biochemical
[2] = target: interaction between HDM2 and p53 (GST-hMDM2 (1-188) / biotinylated-p53 (1-83)) (Homo sapiens (Human), UniProt Q00987); experiment: HTRF2 Assay (improved HTRF assay); assay type: binding
[3] = 0.2 nM GST-hMDM2 (1-188), 0.5 nM biotinylated-p53 (1-83), 100 mM KF, read-out: HTRF2 IC50

Sequence of interaction between HDM2 and p53 (GST-hMDM2 / biotinylated-p53) (Q00987 1-188): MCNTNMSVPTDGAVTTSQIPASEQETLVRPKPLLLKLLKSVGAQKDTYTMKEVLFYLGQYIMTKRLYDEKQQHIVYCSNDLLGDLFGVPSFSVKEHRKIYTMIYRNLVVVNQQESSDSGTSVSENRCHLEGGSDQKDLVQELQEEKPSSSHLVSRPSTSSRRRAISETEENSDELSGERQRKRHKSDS
Sequence of interaction between HDM2 and p53 (GST-hMDM2 (1-188) / biotinylated-p53 (1-83)) (Q00987 1-188): as above

IC50 [1]	IC50 [2]	IC50 [2, 3]	IC50 ([2]; read-out: HTRF2 IC50)	SMILES
43.9 µM				CN1C(=O)[C@@H](CC(N)=O)O[C@H](c2ccc(Cl)cc2)[C@@H]1c1ccc(Cl)cc1 [2-((2R,5S,6R)-5,6-bis(4-chlorophenyl)-4-methyl-3-oxo-2-morpholinyl)acetamide]
27.5 µM	23.4 µM			CCCC[C@H](C(=O)O)N1C(=O)CO[C@@H](c2ccc(Cl)cc2)[C@H]1c1ccc(Cl)cc1 [(2R)-2-((2S,3R)-2,3-bis(4-chlorophenyl)-5-oxo-4-morpholinyl)hexanoic acid]
0.443 µM	0.539 µM			CCC[C@H](C(=O)O)N1C(=O)[C@H](Cc2ccc(C#N)c(F)c2)O[C@@H](c2ccc(Cl)cc2)[C@H]1c1ccc(Cl)cc1 [(2R)-2-((2S,3R,6S)-2,3-bis(4-chlorophenyl)-6-(4-cyano-3-fluorobenzyl)-5-oxo-4-morpholinyl)pentanoic acid]
67.5 µM				CN1C(=O)[C@H](O)O[C@@H](c2ccc(Cl)cc2)[C@H]1c1ccc(Cl)cc1 [(2R,5R,6S)-5,6-bis(4-chlorophenyl)-2-hydroxy-4-methyl-3-morpholinone]
33.1 µM				CCCC[C@H](C(=O)O)N1C(=O)CO[C@H](c2ccc(Cl)cc2)[C@@H]1c1ccc(Cl)cc1 [(2R)-2-((2R,3S)-2,3-bis(4-chlorophenyl)-5-oxo-4-morpholinyl)hexanoic acid]
46.8 µM				C[C@H]1O[C@@H](c2ccc(Br)cc2)[C@@H](c2ccc(Br)cc2)N(C)C1=O [(2R,5R,6S)-5,6-bis(4-bromophenyl)-2,4-dimethyl-3-morpholinone]
23.9 µM		29.6 µM		O=C1CO[C@@H](c2ccc(Cl)cc2)[C@@H](c2ccc(Cl)cc2)N1c1cccnc1 [(5R,6S)-5,6-bis(4-chlorophenyl)-4-(3-pyridinyl)-3-morpholinone]
42.4 µM				CCN1C(=O)CO[C@H](c2ccc(Br)cc2)[C@@H]1c1ccc(Br)cc1 [(5S,6R)-5,6-bis(4-bromophenyl)-4-ethyl-3-morpholinone]
24.6 µM		> 100 µM		CC(C)N1C(=O)CO[C@H](c2ccc(Br)cc2)[C@@H]1c1ccc(Br)cc1 [(5S,6R)-5,6-bis(4-bromophenyl)-4-(1-methylethyl)-3-morpholinone]
72.3 µM				CN1C(=O)CN(Cc2ccccc2)[C@H](c2ccc(Br)cc2)[C@@H]1c1ccc(Br)cc1 [(5R,6S)-5,6-bis(4-bromophenyl)-1-methyl-4-(phenylmethyl)-2-piperazinone]
6.88 µM		6.09 µM		CCC[C@H](CN)N1C(=O)CO[C@@H](c2ccc(Cl)cc2)[C@H]1c1ccc(Cl)cc1 [(5R,6S)-4-((1R)-1-(aminomethyl)butyl)-5,6-bis(4-chlorophenyl)-3-morpholinone]
23.7 µM		25 µM		C=CC[C@H]1O[C@H](c2ccc(Br)cc2)[C@H](c2ccc(Br)cc2)N(C)C1=O [(2R,5S,6R)-5,6-bis(4-bromophenyl)-4-methyl-2-(2-propen-1-yl)-3-morpholinone]
23.2 µM		22.7 µM		C[C@@H]1O[C@@H](c2ccc(Br)cc2)[C@@H](c2ccc(Br)cc2)N(C)C1=O [(2S,5R,6S)-5,6-bis(4-bromophenyl)-2,4-dimethyl-3-morpholinone]
61.7 µM				C[C@H](C(=O)O)N1C(=O)CO[C@H](c2ccc(Cl)cc2)[C@@H]1c1ccc(Cl)cc1 [(2R)-2-((2R,3S)-2,3-bis(4-chlorophenyl)-5-oxo-4-morpholinyl)propanoic acid]
3.72 µM		3.61 µM		CCC[C@H](COC(N)=O)N1C(=O)CO[C@@H](c2ccc(Cl)cc2)[C@H]1c1ccc(Cl)cc1 [(2R)-2-((2S,3R)-2,3-bis(4-chlorophenyl)-5-oxo-4-morpholinyl)pentyl carbamate]
0.39 µM	0.517 µM			CCC[C@H](C(=O)NCC(=O)O)N1C(=O)[C@H](Cc2ccc(C#N)c(F)c2)O[C@@H](c2ccc(Cl)cc2)[C@H]1c1ccc(Cl)cc1 [N-((2R)-2-((2S,3R,6S)-2,3-bis(4-chlorophenyl)-6-(4-cyano-3-fluorobenzyl)-5-oxo-4-morpholinyl)pentanoyl)glycine]
24.2 µM		16.8 µM		O=C1CO[C@@H](c2ccc(Cl)cc2)[C@@H](c2ccc(Cl)cc2)N1c1ccncc1 [(5R,6S)-5,6-bis(4-chlorophenyl)-4-(4-pyridinyl)-3-morpholinone]

IC50 [1]	IC50 [2]	IC50 [2, 3]	IC50 ([2]; read-out: HTRF2 IC50)	SMILES
0.486 µM			0.745 µM	CCC[C@H](C(=O)NCC(N)=O)N1C(=O)[C@H](Cc2ccc(C#N)cc2)O[C@@H](c2ccc(Cl)cc2)[C@H]1c1ccc(Cl)cc1 (racemic) [Example 34, (R)—N-(2-Amino-2-oxoethyl)-2-((2S,3R,6S)-2,3-bis(4-chlorophenyl)-6-(4-cyanobenzyl)-5-oxomorpholino)pentanamide and (S)—N-(2-amino-2-oxoethyl)-2-((2R,3S,6R)-2,3-bis(4-chlorophenyl)-6-(4-cyanobenzyl)-5-oxomorpholino)pentanamide]
0.297 µM	0.393 µM			CCC[C@H](C(=O)O)N1C(=O)[C@H](Cc2ccc(C#N)cc2)O[C@@H](c2ccc(Cl)cc2)[C@H]1c1ccc(Cl)cc1 [(2R)-2-((2S,3R,6S)-2,3-bis(4-chlorophenyl)-6-(4-cyanobenzyl)-5-oxo-4-morpholinyl)pentanoic acid]
3.96 µM			3.32 µM	O=CC[C@@H]1O[C@@H](c2cccc(Cl)c2)[C@@H](c2ccc(Cl)cc2)N(CC2CC2)C1=O (racemic) [Example 15, (2-((2S,5R,6S)-6-(3-Chlorophenyl)-5-(4-chlorophenyl)-4-(cyclopropylmethyl)-3-oxomorpholin-2-yl)acetaldehydeacetaldehyde and (2-((2R,5S,6R)-6-(3-chlorophenyl)-5-(4-chlorophenyl)-4-(cyclopropylmethyl)-3-oxomorpholin-2-yl)acetaldehydeacetaldehyde]
10.4 µM		6.64 µM		CN1C(=O)/C(=C/c2cccnc2)O[C@H](c2ccc(Cl)cc2)C1c1ccc(Cl)cc1 (mixture of isomers) [Example 39, (5S,6R,Z)-5,6-Bis(4-chlorophenyl)-4-methyl-2-(pyridin-3-ylmethylene)morpholin-3-one and (5R,6S,Z)-5,6-bis(4-chlorophenyl)-4-methyl-2-(pyridin-3-ylmethylene)morpholin-3-one]
16.6 µM		10 µM		O=C1CO[C@@H](c2cccc(Cl)c2)[C@@H](c2ccc(Cl)cc2)N1C1CCCC1 [(5R,6S)-6-(3-chlorophenyl)-5-(4-chlorophenyl)-4-cyclopentyl-3-morpholinone]
12.3 µM		20 µM		CN1C(=O)[C@@H](c2ccccc2)O[C@H](c2ccc(Br)cc2)[C@@H]1c1ccc(Br)cc1 [(2R,5S,6R)-5,6-bis(4-bromophenyl)-4-methyl-2-phenyl-3-morpholinone]
0.514 µM				CCC[C@H](c1nnn[nH]1)N1C(=O)[C@H](Cc2ccc(I)cc2)O[C@@H](c2ccc(Cl)cc2)[C@H]1c1ccc(Cl)cc1 (racemic) [Example 36, (2S,5R,6S)-4-((R)-1-(1H-Tetrazol-5-yl)butyl)-5,6-bis(4-chlorophenyl)-2-(4-iodobenzyl)morpholin-3-one and (2R,5S,6R)-4-((S)-1-(1H-tetrazol-5-yl)butyl)-5,6-bis(4-chlorophenyl)-2-(4-iodobenzyl)morpholin-3-one]
> 100 µM		31.6 µM		O=C1CO[C@@H](c2ccc(Cl)cc2)[C@@H](c2ccc(Cl)cc2)N1c1ccccc1 [(5R,6S)-5,6-bis(4-chlorophenyl)-4-phenyl-3-morpholinone]
41.8 µM				O=C1CO[C@@H](c2ccc(Cl)cc2)[C@@H](c2ccc(Cl)cc2)N1CC1CC1 [(5R,6S)-5,6-bis(4-chlorophenyl)-4-(cyclopropylmethyl)-3-morpholinone]
40.2 µM				CC[C@H](C(=O)O)N1C(=O)CO[C@H](c2ccc(Cl)cc2)[C@@H]1c1ccc(Cl)cc1 [(2R)-2-((2R,3S)-2,3-bis(4-chlorophenyl)-5-oxo-4-morpholinyl)butanoic acid]
84.4 µM				O=C1CN(Cc2ccccc2)[C@H](c2ccc(Br)cc2)[C@H](c2ccc(Br)cc2)N1 [(5R,6S)-5,6-bis(4-bromophenyl)-4-(phenylmethyl)-2-piperazinone]
		0.496 µM		CCC[C@H](C(=O)O)N1C(=O)[C@H](Cc2ccccc2OC)O[C@@H](c2ccc(Cl)cc2)[C@H]1c1ccc(Cl)cc1 [(2R)-2-((2S,3R,6S)-2,3-bis(4-chlorophenyl)-6-(2-methoxybenzyl)-5-oxo-4-morpholinyl)pentanoic acid]
		2.79 µM		CCC[C@H](C(=O)OCC)N1C(=O)[C@H](CCCN2CCOCC2)O[C@@H](c2ccc(Cl)cc2)[C@H]1c1ccc(Cl)cc1 [ethyl (2R)-2-((2S,3R,6S)-2,3-bis(4-chlorophenyl)-6-(3-(4-morpholinyl)propyl)-5-oxo-4-morpholinyl)pentanoate]
38.2 µM				O=C1CO[C@@H](c2ccc(Br)cc2)[C@@H](c2ccc(Br)cc2)N1C1CC1 [(5R,6S)-5,6-bis(4-bromophenyl)-4-cyclopropyl-3-morpholinone]
		9.3 µM		O=C1CO[C@@H](c2ccc(Cl)cc2)[C@@H](c2ccc(Cl)cc2)N1c1cnccn1 [(5R,6S)-5,6-bis(4-chlorophenyl)-4-(2-pyrazinyl)-3-morpholinone]
		7.18 µM		O=C1CO[C@@H](c2ccc(Cl)cc2)[C@@H](c2ccc(Cl)cc2)N1c1ccnc(Cl)c1 [(5R,6S)-5,6-bis(4-chlorophenyl)-4-(2-chloro-4-pyridinyl)-3-morpholinone]

SMILES	IC50 [1]	IC50 [2]	IC50 [2, 3]	IC50 ([2]; read-out: HTRF2 IC50)
CCC[C@H](C(=O)O)N1C(=O)[C@H](CCCN2CCOCC2)O[C@@H](c2ccc(Cl)cc2)[C@H]1c1ccc(Cl)cc1 [Example 57, (R)-2-((2S,3R,6S)-2,3-Bis(4-chlorophenyl)-6-(3-morpholinopropyl)-5-oxomorpholino)pentanoic acid]			0.391 µM	
